Results: patent US20050070462A1, “Method for stabilising of nucleic acids” (Intercell AG, priority 2001, published 2005)
Ends that are not written are not given here.

Key:
[1] = system: TRP-2181-188-specific immune responses; test: IFN-γ ELISPOT of spleen cells at day 6, 49 and 98 after injection with TRP-2181-188 (Example 5); assay type: in vivo, Mice C57Bl/6; details: co-injection of TRP-2181-188, pR and ODN, day 6, day 49, day 98 after single injection, compared to TRP-2181-188 with pR or CpG 1668b
[2] = system: OVA257-264-specific immune responses; test: IFN-γ ELISPOT of popliteal lymph node cells 4 days after footpad injection with OVA257-264 (Example 1); assay type: in vivo, Mice C57Bl/6; details: injected with OVA257-264 and co-injection of poly-L-arginine 100 μg/mouse; ODN 5 nmol/mouse; day 4
Procedure: • Mice C57Bl/6 (Harlan/Olac) • Peptide OVA257-264-Peptide (SIINFEKL), a MHC class I (H-2 Kb)-restricted epitope of chicken ovalbumin (Rotzschke et al., 1991), synthesized by standard solid phase F-moc synthesis, HPLC purified and analysed by mass spectroscopy for purity • Dose: 300 μg/mouse • Poly-L-arginine (pR) Poly-L-arginine with an average degree of polymerization of 43 arginine residues; SIGMA chemicals • Dose: 100 μg/mouse • CpG-ODN 1668 thiophosphate substituted ODNs containing CpG-motif: tcc atg acg ttc ctg atg ct, were synthesized by Purimex GmbH, Göttingen. • Dose: 5 nmol/mouse • CpG-ODN 1668 b ODNs containing CpG-motif (not substituted with thiophospate): tcc atg acg ttc ctg atg ct, were synthesized by Purimex GmbH, Göttingen. • Dose: 5 nmol/mouse. Experimental Groups (4 Mice Per Group) • 1. OVA257-264+pR • 2. OVA257-264+CpG-ODN 1668 • 3. OVA257-264+CpG-ODN 1668 b • 4. OVA257-264+CPG-ODN 1668+pR • 5. OVA257-264+CPG-ODN 1668 b+pR. […] This method is a widely used procedure allowing the quantification of antigen-specific T cells. […] Spots representing single IFN-γ producing T cells were counted and the number of background spots was substracted from all samples. The high number of spots detected after the stimulation with Con A (data not shown) indicates a good condition of the used lymphocytes. […]

[3] = system: peptide-specific IFN-γ-producing T cells (TRP-2181-188); test: IFN-γ ELISPOT of PBMCs at day 7 after injection with TRP-2181-188 and KLK (Example 7); assay type: in vivo, Mice C57Bl/6; details: TRP-2181-188 alone or with a single adjuvant
[4] = system: OVA257-264-specific IFN-γ producing T cells; test: IFN-γ ELISPOT of PBMCs at day 7 after injection with OVA257-264 and KLK (Example 6); assay type: in vivo, Mice C57Bl/6; details: injected with OVA257-264, single adjuvant
[5] = system: TRP-2181-188-specific immune responses; test: IFN-γ ELISPOT of spleen cells at day 40 after injection with TRP-2181-188 (Example 4); assay type: in vivo, Mice C57Bl/6; details: injected with TRP-2181-188, single adjuvant, compared to TRP-2181-188 alone
serum DNAses = test: Degradation of DNA-plasmid pSP65 by serum DNAses, agarose gel (Example 8); assay type: in vitro ADME; details: incubated with serum from naïve mice, 1 h at 37° C., presence of poly-L-arginine 2.4 μg
Procedure: To investigate the protective effect of pR in preventing the degradation of DNA by DNAses the following in vitro experiment was performed. To show a possible in vivo relevance serum was used as source of DNases.
The DNA-plasmid pSP65 (1.58 μg/2 μl) was incubated with serum (8 μl) from naïve mice in the presence or absence of poly-L-arginine (2.4 μg/2.4 μl) for 1 h at 37° C. Addition of heparin (1.6 U/1.6 μl) for 20 min at RT was used for the dissociation of DNA/pR-complexes allowing DNA to migrate into the gel. […] As control a 100 bp DNA marker (GIBCO BRL) was used.

[6] = system: TRP-2181-188-specific immune responses; test: IFN-γ ELISPOT of lymph node cells after footpad injection with TRP-2181-188 (Examples 2 and 3); assay type: in vivo, Mice C57Bl/6; details: injected with TRP-2181-188 and co-injection of poly-L-arginine 100 μg/mouse; ODN 5 nmol/mouse

Substance: CpG-ODN 1668 b: ODNs containing CpG-motif (not substituted with thiophospate): tcc atg acg ttc ctg atg ct (DNA TCCATGACGTTCCTGATGCT; unmodified DNA)
- peptide-specific IFN-g producing cells (spleen) ([1]; listed as CpG 1668 b): potent and long lasting immune stimulatory effect
- peptide-specific IFN-g producing cells (spleen) ([1]; listed as CpG 1668b): significantly higher numbers of peptide-specific IFN-g producing cells
- OVA257-264-specific immune response (IFN-γ-producing cells/1×10^6 lymph node cells) [2]: only upon co-injection of poly-L-arginine a high immune response was induced

Substance: KLKLLLLLKLK—COOH (KLKLLLLLKLK-OH) [synthetic peptide containing KLK-motifs separated by a linker of hydrophobic amino acids]
- peptide-specific IFN-γ-production (PBMCs) [3]: no peptide-specific IFN-γ-production
- peptide-specific IFN-γ-production (PBMCs) [4]: no peptide-specific IFN-γ-production

Substance: Poly-L-arginine [pR]
- TRP-2181-188-specific immune response (IFN-γ-producing spleen cells) [5]: enhances TRP-2181-188-specific immune responses
- degradation of pSP65 DNA by serum DNases (agarose gel band pattern) (serum DNAses): prevented

Substance: TRP-2181-188: VYDFFVWL, a MHC class I (H-2 Kb)-restricted epitope of mouse tyrosinase related protein-2 [reference compound]
- peptide-specific IFN-γ-production (PBMCs) [3]: no peptide-specific IFN-γ-production

Substance: U-ODN 13b: ODNs containing deoxy-Uridine monophosphate (not substituted with thiophospate): tcc atg acu ttc ctg atg ct (DNA TCCATGACUTTCCTGATGCT; DNA, all phosphodiester, T or U not given here; further chemistry not fully specified)
- TRP-2181-188-specific immune response (IFN-γ-producing lymph node cells) [6]: only upon co-injection of poly-L-arginine a strong immune response was induced
